Laboratory results: patent US8865237B2, “Method of preparing dialysed extract of fenugreek seeds which induces hypoglycemia, mediated, in part, via stimulation of insulin signaling pathway” (Department of Biotechnology, priority 2006, dated 2014)

Legend:
[1] = system: CHO clones expressing insulin receptor and GLUT4eGFP; experiment: Glucose transport (2-DG uptake) in GLUT4 overexpressing CHO cells; format: cell-based; conditions: wortmannin 20 min or BIS-1 100 nmol/l 1 h, then extract 30 min
Procedure: Cell Culture In Vitro Studies. […] For preadipocyte differentiation 80% confluent preadipocytes were cultured for 2 days in differentiation medium (DMEM supplemented with 1 μmol/l insulin, 0.5 mmol/l IBMX, 0.25 μmol/l DEX containing 10% FBS) and for 2 days in DMEM supplemented with 1 μmol/l insulin and 10% FBS. Thereafter the cells were grown for an additional 4-5 days in DMEM containing 10% FBS. Media was changed on every second day without any additional supplements. CHO clones expressing insulin receptor and GLUT4eGFP protein were grown in media supplemented with hygromycin additionally (100 μg/ml). Penicillin (100 units/ml) and streptomycin ([…]) were added routinely to cultures and all cell lines were cultivated at 37° C. in a 5% CO2 enriched humidified atmosphere.
Effect of FSE on glucose transport. […] Protein was estimated and the radioactivity incorporated into cells was quantified by scintillation counting (Packard, Albertville, Minn.). Nonspecific uptake, measured in the presence of 10 μmol/l cytochalasin B, was subtracted from all values. […]
(§1) Effect of FSE on glucose transport in GLUT4 overexpressing cells. […] CHO cells overexpressing insulin receptor as well as GLUT4 were incubated in the presence of various concentrations of FSE for 30 min and glucose transport was measured by determining the rates 2DG uptake. […]

[2] = system: GLUT4 in 3T3-L1 adipocytes; experiment: GLUT4 translocation in 3T3-L1 cells (mycGLUT4 ELISA, membrane fractionation); format: cell-based
Procedure: GLUT4 Translocation Assay in GLUT4 Overexpressing Cell lines. CHO clones expressing insulin receptor and GLUT4eGFP protein were plated on a microscopic chamber slide (ICN, Costa Mesa, Calif.), serum starved in DMEM containing 1 mg/ml BSA for 3 h, followed by treatment with 100 nmol/l insulin or 25 mg/l FSE for 10 and 30 min respectively. Treatment was terminated by keeping the slide on ice and washing with cold PBS. Cells were fixed with 3% para-formaldehyde (PF) in PBS for 15 min at room temperature. GLUT4 translocation was investigated by using LSM confocal microscope (Zeiss LSM 510, Heidelberg, Germany). 3T3-L1 expressing mycGLUT4 were grown in 96 well plated then differentiated to adipocytes, serum starved for 3 h and incubated with insulin or FSE for 10 and 30 min respectively. To examine the specificity of the signaling pathway the cells were pretreated with wortmannin (100 nmol/l) or BIS-1 (100 nmol/l) for 20 min and 1 h respectively. […] The optical absorbance of the supernatant was measured at 414 nm. […]
as §1

[3] = system: PKCλ in 3T3-L1 adipocytes; experiment: PKCλ in plasma membrane fraction of 3T3-L1 adipocytes (immunoblotting); format: cell-based; conditions: wortmannin 100 nmol/l 20 min, BIS-1 100 nmol/l 1 h
Procedure: Isolation of plasma membrane fraction and immunoblotting detection of PKCλ and GLUT4 in 3T3-L1 adipocytes. Differentiated 3T3-L1 cells in 100 mm petri dishes were serum starved for 3 h in DMEM supplemented with 0.1% BSA and then treated with 100 nmol/l insulin or […] for 10 min and 30 min respectively. In some cases cells were pre-treated with 100 nmol/l wortmannin, for 20 min or 100 nmol/l BIS-1 for 1 h followed by treatment with extract t for additional 30 min. Plasma membrane fractionation of 3 T3-L1 adipocytes was performed as previously described (28) with slight modifications that 1 mmol/l PMSF, 1 mmol/l Na3VO4 and a cocktail of protease inhibitors were added to the lysis buffers. Equal protein was diluted with 5× Laemmli buffer, electrophoresied by 10% SDS-PAGE and transferred on to a nitrocellulose membrane. The membrane was probed with anti-nPKCλ or anti-GLUT4 antibody.
Effect of FSE on PKCλ translocation in 3T3-L1 and RepG2 cells. […] To investigate the link between FSE induced 1R phosphorylation and GLUT4 translocation, translocation of PKCλ was studied in both 3T3-L1 and HepG2. […] In unstimulated HepG2 cells the immunofluorescence was minimum as visualized by confocal microscopy. […] Wortmannin and bis-1 decreased the fluorescence associated with the membrane.

PKCλ in HepG2 cells = experiment: Confocal microscopy analysis of PKC translocation in HepG2 cells; format: cell-based, human; conditions: HepG2, pretreatment before extract
Procedure: Confocal microscopy analysis of PKC translocation in HepG2 cells. HepG2 cells were serum starved for 3 h and were treated with either 100 nmol/l insulin for 10 min or 25 mg/l FSE for 30 min. In some wells, cells were pretreated with pharmacological inhibitors before treating with extract. Cells were washed quickly with cold PBS and fixed by treating with 3% paraformaldehyde in PBS Ph 7.4, for 15 min at room temperature, rinsed with PBS three times and quenched with 1% glycine for 10 min. Cells were permeabilised with 0.025% saponin in PBS, for 5 min, blocked with PBS containing 5% FBS for 1 h at room temperature, incubated with anti-PKC antibody for overnight at 4° C. in PBS oontaining 2.5% FBS. Cells were washed four times for 5 min each with PBS. Cells were then incubated with a flourescein isothoicyanate conjugated anti-rabbit antibody for additional 1 h, washed again and mounted using vectashield (Vector Laboratories, Burlingame, Calif.) for visualization by confocal microscopy. Rabbit IgG was used as an isotype control.
Effect of FSE on PKCλ translocation in 3T3-L1 and RepG2 cells. […] To investigate the link between FSE induced 1R phosphorylation and GLUT4 translocation, translocation of PKCλ was studied in both 3T3-L1 and HepG2. […] Wortmannin and bis-1 decreased the fluorescence associated with the membrane.

liver glucokinase (GK) = experiment: Liver glucokinase assay in STZ-BALB/cJ mice; format: in vivo
Procedure: BALB/cJ or Swiss albino mice (male, 8-10 week old) were housed under environmentally controlled conditions (22+/−2° C.) with a 12 h light/dark cycle and had free access to standard rodent pellet food and water. Animals were given 5 daily intraperitoneal (IP) injection of freshly prepared STZ (40 mg/kg in 0.5 mol/l sodium citrate pH 4.5) or AXN (50 mg/kg in 0.9% sodium chloride). Ten hours before the experiments, animals were moved to new cages in which no food was available. AXN injected mice that achieved a glucose level of 200-300 mg/dl and STZ injected mice that achieved a glucose level of 275-400 mg/dl were used as hyperglycemic models in this study. Mice were divided into, diabetic control group, insulin group and FSE group (n=5 in each group). Mice were injected (IP) with vehicle (PBS), insulin (1.5 U/kg) or extract (1, 5 or 15 mg/kg). Blood was collected before injection (0 min), 90 and 240 min after the treatments and serum blood glucose levels were estimated. In some experiments STZ-BALB/cJ mice were sacrificed 90 min after the treatments, and the livers were harvested for analysis. In another set of experiments, AXN-induced Swiss albino diabetic mice were injected with PBS or extract for 5 days (n=5). Blood was collected on day 0, 5, 10 and 15 and body weight was monitored on same day. Acidified insulin from bovine pancreas diluted in PBS was used as a positive test compound in all the experiments. All animal experiments have been performed following the requirement of the committee for the Purpose of Control and Supervision of Experiments on Animals (CPCSEA), Government of India, and after permission of the Institute's Animal Care and Use Committee (IACUC).
Glucokinase assay. Liver samples were homogenized in three volumes of ice cold buffer containing 50 mmol/l Tris-HCl, pH 7.4, 300 mmol/l sucrose, 100 mmol/l KCl, 1 mmol/l EDTA 2.5 mmol/1 mercaptoethanol and centrifuged at 12,000×g for 15 min (12). […] GK activity was calculated as the difference between the glucose phosphorylation capacity at 100 and 0.5 mmol/l glucose. […]

[4] = system: insulin receptor, IRS-1 and p85 subunit of PI3-Kinase in 3T3-L1 adipocytes; experiment: Phosphorylation of insulin signaling proteins in 3T3-L1 adipocytes (western blot); format: cell-based; conditions: 3T3-L1, 25 mg/l FSE or 100 nmol/l insulin
Procedure: (§2) Effect of FSE on insulin signaling proteins in 3T3-L1 Adipocytes and HepG2 cell lines. Differentiated 3T3-L1 adipocytes or HepG2 cell were serum starved in F-12K medium containing 7 mM glucose and 0.1% BSA for 16 h followed by changing medium to DMEM containing 25 mmol/l glucose and incubated for 1 h. Subsequently the cells were treated with 100 nmol/l insulin or 25 mg/l FSE for 10 min and 30 min respectively. Untreated cells were incubated with PBS. Cells were washed with cold PBS, removed from the plates using a rubber policeman, lysed in lysis buffer (50 mmol/l Tris-HCl pH7.5, 150 mmol/l NaCl, 1% NP-40, 2 mmol/l EGTA, 2 mmol/l Na3VO4, 100 mmol/l Na4P2O7, […], 1 mmol/l PMSF and protease inhibitor cocktail) on ice for 30 min, passed through 261/2G syringe 20 times and finally centrifuged at 15,000×g for 10 min at 4° C. Equal amounts of protein (100 μg) were diluted in 5× Laemmli reducing buffer (250 mmol/l Tris-HCl p 6.8, 10% SDS, 0.5% bromophenol blue, 50% glycerol, 12.5% β-mercaptoethanol) boiled for 5 min at 100° C. and resolved by 8% SDS-PAGE by running proteins below 43 kDa out of the gel. The proteins form the gel were transferred to nitrocellulose membrane using transfer buffer (CAPS buffer pH 10.7 containing 10% methanol) by applying 150 mA current for 2 h. […]

[5] = system: insulin receptor, IRS-1 and p85 subunit of PI3-Kinase in HepG2 cells; experiment: Phosphorylation of insulin signaling proteins in HepG2 cells (western blot); format: cell-based, human; conditions: HepG2, 25 mg/l FSE or 100 nmol/l insulin
Procedure: as §2

Compound	effect of inhibitor pretreatment on FSE stimulated glucose uptake [1]	effect of inhibitor pretreatment on FSE induced GLUT4 translocation ([2]; wortmannin 100 nmol/l 20 min, BIS-1 100 nmol/l 1 h)	effect of inhibitor pretreatment on translocation of PKCλ induced by FSE [3]	effect of inhibitors on fluorescence associated with the membrane (PKCλ in HepG2 cells)	enhancement of GK activity compared to diabetic control (liver glucokinase (GK); STZ-diabetic BALB/cJ mice, 90 min, FSE 15 mg/kg) [%]	activation of GK compared to control treated animals (liver glucokinase (GK); diabetic animals, 90 min treatment) [fold]	GK activity (liver glucokinase (GK); liver removed 90 min after treatment, insulin 1.5 U/kg or FSE 15 mg/kg) [nmol/min/mg]	enhancement of glucose uptake ([2]; 100 nmol/l insulin, under similar experimental conditions) [fold]	IR-α phosphorylation [4]	IR-α phosphorylation [5]
CN(C)CCCn1cc(C2=C(c3c[nH]c4ccccc34)C(=O)NC2=O)c2ccccc21 [BIS-1]	abrogated	masked	inhibited	decreased						
insulin					460	4.5	690.0	2.5	did not exhibit	did not exhibit
